What all share (assay): DTP human tumour cell line panel, 48 h
Test [1] deals with A498 renal.
Test [2] deals with A549 NSCLC.
Test [3] relates to CAKI-1 renal.
Test [4] has as its system CCRF-CEM leukemia.
The test system of test [5] is SK-MEL-5 melanoma.
Test [6] relates to COLO 205 colon.
For test [7], the system named is HCT-116 colon.
Test [8] concerns OVCAR-5 ovarian.
Test [9] concerns NCI-H23 lung.

This passage reports GI50 and TGI results from PubChem BioAssay (NCI).

Usually GI50 stands for the concentration giving 50% growth inhibition. A word on the TGI: it is the concentration at which net growth stops.

The structures appear in SMILES notation.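 Tested at 5 concentrations; 48 h exposure; 96-well plates; endpoints linearly interpolated, else capped at highest concentration. GI50 marks 50% less growth. TGI is the concentration that stops growth completely.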

Consider `CC(C)CCCC(C)[C@H]1CCC2C3CC=C4C[C@@H](OC(=O)CC(CC(=O)[O-])C(=O)[O-])CC[C@]4(C)C3CC[C@@]21C.N.N.[Pt+4]` (some centres undefined), for which the GI50 in test [1], in test [2], in [3], in test [4], in test [5] and in test [6] was over 100 µM in each case. In addition, in test [7], the GI50 is over 100 µM. Also, the concentration for total growth inhibition (TGI) in test [1], in [2], in test [3], in [4], in test [5] and in [6] was over 100 µM throughout. Further, the TGI in [7] is over 100 µM.
Take `COc1ccccc1NC(=O)C1=C(C)NC(C)=C(C(=O)Nc2ccccc2OC)C1c1ccc(C2C(C(=O)Nc3ccccc3OC)=C(C)NC(C)=C2C(=O)Nc2ccccc2OC)cc1`: the TGI is 15.5 µM in test [1]; over 60.4 µM in test [2]; 10.7 µM in test [8]; 11.3 µM in [3]; 5.71 µM in [4]; 8.14 µM in [5]. Further, the figures for the total growth inhibition concentration (TGI) in [6], in [7] and in test [9] were 10.2 µM, 2.7 µM and 7.52 µM, respectively.
`C=CC(=O)OCCCS(=O)(=O)[O-].C=CC(=O)OCCCS(=O)(=O)[O-].NC1CCCCC1N.[Pt+4]`: the GI50 in test [1], in test [2], in test [8], in test [3], in test [4] and in test [5] was over 25 µM each time. In addition, the GI50 in test [6], in [7] and in test [9] was over 25 µM in each case. Also, the TGI in [1], in test [2], in test [8], in [3], in test [4] and in test [5] was over 25 µM each time. Besides, the TGI in test [6], in test [7] and in [9] was over 25 µM throughout.
Take `COc1ccc(C2C(C(=O)O)=C(CO)Oc3cc4c(cc32)OCO4)c(OC)c1` (centres undefined): the TGI in test [2], in test [3], in test [4], in [5], in [6] and in test [7] was over 100 µM in each case. In test [9], this compound gave a total growth inhibition concentration (TGI) of over 100 µM.
`CC(C(=O)c1ccc(O)cc1)C1(O)C(=O)Nc2c(Cl)cc(Cl)cc21` (centres undefined): the TGI in test [1] was over 85.3 µM; in [2], over 100 µM; in test [8], over 100 µM; in [3] it was over 100 µM; in test [4], 74.7 µM; in [5] it was 31.4 µM. Further, the TGI in test [6], in [7] and in test [9] was over 100 µM in each case.
For the compound `O=C(CC(=O)c1cccc2ccccc12)C(=O)Nc1nccs1`, the TGI in test [1], in [2], in test [8], in test [3], in test [4] and in test [5] was over 100 µM each time. In addition, the concentration for total growth inhibition (TGI) in test [6], in test [7] and in [9] was over 100 µM in each case.
`CCSc1nnc(-c2ccc3ccccc3c2O)n1-c1ccccc1`: in test [9], the GI50 is over 100 µM and the TGI is over 100 µM.
As for `CC(C)(C)CC(C)(C)c1cc2c(O)c(c1)Cc1cc(C(C)(C)CC(C)(C)C)cc(c1O)Cc1cc(C(C)(C)CC(C)(C)C)cc(c1O)Cc1cc(C(C)(C)CC(C)(C)C)cc(c1O)Cc1cc(C(C)(C)CC(C)(C)C)cc(c1O)Cc1cc(C(C)(C)CC(C)(C)C)cc(c1O)Cc1cc(C(C)(C)CC(C)(C)C)cc(c1O)Cc1cc(C(C)(C)CC(C)(C)C)cc(c1O)C2`, the concentration for total growth inhibition (TGI) in test [2], in [8], in test [4], in test [5], in test [6] and in [7] was over 100 µM throughout. The TGI in test [9] was over 100 µM.
For `O=c1c2cc(Br)ccc2n(C2OC(CO)C(O)C(O)C2O)c(=S)n1-c1ccccc1` (centres undefined), the TGI in [1], in [2], in test [8], in test [6], in test [7] and in test [9] was over 100 µM in each case.
On to `CC/C(=N/O)C(C)C(=O)CCC(=O)Nc1ccc(Cl)cc1` (centres undefined), for which the total growth inhibition concentration (TGI) in test [1], in test [2], in test [8], in [3], in test [4] and in test [5] was over 100 µM throughout. For the same compound, the total growth inhibition concentration (TGI) in test [6], in [7] and in [9] was over 100 µM throughout.
In the case of `O=C(c1nc2ccc(Cl)cc2[nH]c1=O)C(O)c1cccc([N+](=O)[O-])c1` (centres undefined), the TGI in test [1], in test [2], in test [8], in test [3], in [4] and in test [5] was over 100 µM in each case. For the same compound, the total growth inhibition concentration (TGI) in [6], in test [7] and in [9] was over 100 µM in each case.
Turning to `CC1=CC[C@@H]2C(=O)C=CC=C[C@H]12.[C-]#[O+].[C-]#[O+].[C-]#[O+].[Fe]`, the GI50 in test [1], in [2], in test [8], in [4], in test [5] and in test [7] was over 100 µM each time. The GI50 in test [9] was over 100 µM. In addition, the concentration for total growth inhibition (TGI) in test [1], in [2], in [8], in [4], in [5] and in test [7] was over 100 µM in each case. In addition, the concentration for total growth inhibition (TGI) in test [9] was over 100 µM.
Consider `[N-]=[N+]=Nc1nnc(CCCCc2nnc(N=[N+]=[N-])o2)o1`, for which the total growth inhibition concentration (TGI) in test [1], in [2], in test [8], in [4], in test [5] and in [6] was over 100 µM throughout. In addition, the TGI in test [7] and in test [9] was over 100 µM throughout.
Turning to `COC(=O)CCC(=O)Nc1cc(C)ccc1C`, the total growth inhibition concentration (TGI) in test [1], in test [2], in [3], in [4], in [5] and in test [6] was over 100 µM throughout. In addition, the total growth inhibition concentration (TGI) in [7] and in test [9] was over 100 µM in each case.
Take `CN(C)C(=S)/N=C(\N)N(C)C`: the TGI in [1], in test [2], in test [8], in test [3], in [4] and in test [5] was over 100 µM in each case. Besides, the total growth inhibition concentration (TGI) in test [7] and in test [9] was over 100 µM throughout.
As for `Cc1cccc(/C=N/N=C(\N)NO)n1`, the total growth inhibition concentration (TGI) in [1], in [2], in test [3], in test [4], in [5] and in [6] was over 100 µM throughout. Moreover, the total growth inhibition concentration (TGI) in test [7] and in test [9] was over 100 µM throughout.
Regarding `CCOC(=O)C1=C(Nc2cccc3ccccc23)OCC1=O`, the total growth inhibition concentration (TGI) in test [1], in test [2], in [8], in [3], in test [4] and in [5] was over 100 µM throughout. Moreover, the concentration for total growth inhibition (TGI) in test [6], in [7] and in test [9] was over 100 µM throughout.
`O=C(/C=C/c1ccco1)N1CCN(Cc2ccccc2)CC1`: the TGI in [1], in test [2], in test [8], in test [3], in [4] and in test [5] was over 100 µM in each case. Besides, the concentration for total growth inhibition (TGI) in test [7] and in test [9] was over 100 µM in each case.
As for `NC(=S)N/N=C1/C(=O)N(c2ccccc2)C(=O)C1C(=O)Nc1ccccc1` (centres undefined), the TGI in [1], in test [2], in [8], in [3], in [5] and in [6] was over 100 µM each time. Besides, the TGI in test [7] and in test [9] was over 100 µM each time.
`CC(=O)Nc1ccc(S(=O)(=O)N/N=C(\C)CN2C(=O)c3ccccc3C2=O)cc1`: the TGI in [1], in [2], in test [8], in [3], in [4] and in [5] was over 100 µM throughout. Further, the total growth inhibition concentration (TGI) in [6], in [7] and in test [9] was over 100 µM in each case.
On to `O=C(Cc1ccccc1)N/N=C(/c1nc2ccc([N+](=O)[O-])cc2[nH]c1=O)C(O)c1ccco1` (centres undefined), for which the TGI in [1], in test [2], in test [8], in [3], in test [4] and in test [5] was over 100 µM each time. For the same compound, the TGI in test [6], in [7] and in test [9] was over 100 µM each time.
Turning to `NC(CCSCCF)C(=O)O` (centres undefined), the TGI in test [1], in test [2], in test [8], in [3], in [4] and in test [6] was over 100 µM in each case. In addition, the TGI in test [7] and in [9] was over 100 µM throughout.
As to `CC(C)=CC1(C)/C(=N\O)C(C)(CC(C)C)C(=O)N1O` (centres undefined), the concentration for total growth inhibition (TGI) in test [1], in test [2], in test [8], in test [3], in [4] and in test [5] was over 100 µM in each case. For the same compound, the total growth inhibition concentration (TGI) in [6], in test [7] and in test [9] was over 100 µM throughout.
On to `CC(C)(C)c1cc(C#N)c2c(c1)C(=O)OC2(c1ccccc1)c1ccccc1C#N` (centres undefined), for which the TGI in [1], in [2], in [8], in test [3], in test [4] and in [6] was over 100 µM in each case. Further, the TGI in test [7] and in test [9] was over 100 µM each time.
For the compound `OCC(O)C(OC1OC(CO)C(O)C(O)C1O)c1nn(-c2ccc(Cl)cc2)c2nc3cc(Cl)c(Cl)cc3nc12` (centres undefined), the TGI in test [1], in test [8], in [4], in test [7] and in [9] was over 100 µM each time.
For `C=CCC(O)c1cc(OC)ccc1OC` (centres undefined), the TGI in test [2], in test [8], in [3], in test [4], in [5] and in [6] was over 100 µM each time.
`CCOc1ccc2c(c1)[n+]([O-])c(-c1ccc([N+](=O)[O-])cc1)c(N)[n+]2[O-]`: the total growth inhibition concentration (TGI) in test [1], in [2], in test [8], in [3], in test [4] and in test [5] was over 100 µM each time. For the same compound, the TGI in test [6], in [7] and in [9] was over 100 µM throughout.
Consider `Cc1c(-c2cc(-c3ccccc3)n[nH]c2=O)c2ccccc2n1C`, for which the TGI in test [1], in test [2], in test [8], in test [3], in test [4] and in [5] was over 100 µM each time. In addition, the concentration for total growth inhibition (TGI) in test [6], in test [7] and in test [9] was over 100 µM throughout.
As to `Nc1ncnc2c1N=CN(Oc1ccccc1)N2`, the total growth inhibition concentration (TGI) in test [2], in test [8], in test [3], in test [5], in test [6] and in test [7] was over 100 µM throughout. In [9], the TGI was over 100 µM.
